Tested on: hepatocytes lacking RBPJ and HNF6
Experiment: In vitro conversion assay: 3D culture of hepatocyte spheroids in collagen gels
Assay type: cell-based, mouse
Details: 10 μM SB-431542 vs vehicle (DMSO)
Experimental: Genomic DNA was isolated from cells using QIAamp DNA Micro Kit or DNeasy Blood & Tissue Kit (Qiagen). RNA was extracted using Trizol Reagent (Thermo Fisher Scientific) and purified by isopropanol precipitation (cells in collagen gel) or purified using RNAeasy Mini Kit (Qiagen) (liver tissue). Reverse transcription was performed using qScript cDNA Supermix (Quanta Biosciences). qPCR was performed using SYBR green reagent (Thermo Fisher Scientific) in a ViiA 7 system (Thermo Fisher Scientific). Reactions were performed in triplicate, and expression was normalized to an Rbpj (genotyping) or Gapdh (Glyceraldehyde-3-phosphate Dehydrogenase; gene expression) reference and quantified using the ΔΔCt method.
In vitro 3D culture of hepatocytes to induce biliary conversion was carried out as previously reported^21 with the following modifications. Hepatocytes were isolated from 8-10-week-old Rbpj^f/f;Hnf6^f/f mice injected with 1×10^12 vgs of AAV8-Ttr-Cre 2 weeks prior to delete RBPJ and HNF6. Hepatocytes were isolated by 2-step collagenase perfusion followed by purification through a Percoll gradient, all in the absence of serum. Cells were grown on Primaria plates for 6 days to form spheroids. Spheroids were cultured in collagen gels (Cultrex Rat Collagen I, Lower Viscosity, Trevigen) in the presence of 10 μM SB-431542 (Selleckchem) or vehicle (DMSO). The medium was changed every other day.

SMILES: NC(=O)c1ccc(-c2nc(-c3ccc4c(c3)OCO4)c(-c3ccccn3)[nH]2)cc1 [SB-431542]
- biliary differentiation and morphogenesis of hepatocytes: blocks biliary differentiation and morphogenesis

From patent US20210238257A1, “De Novo Formation of the Biliary System by Hepatocyte Transdifferentiation” (THE REGENTS OF THE UNIVERSITY OF CALIFORNIA, priority 2018, published 2021)
